Activity calls are given as the source filed them. The calls are words filed in the database; no cut-off is given here.
Columns and labels:
[1] = target: DNA (cytosine-5)-methyltransferase 1 (Homo sapiens) (UniProt P26358); assay: Inhibition of DNMT1 (unknown origin) up to 6 uM preincubated for 15 mins followed by DNA addition measured after 30 mins relative to control; details: dose microM <=6, time 15.0 min
[2] = Inhibition of bacterial DNA cytosine methyltransferase M.SssI up to 60 uM preincubated for 15 mins followed by DNA addition measured after 30 mins relative to control; details: dose microM <=60, time 15.0 min
[3] = target: T1, DNA (cytosine-5)-methyltransferase 3A (Homo sapiens, UniProt Q9Y6K1); assay: Inhibition of human DNMT3A (628 to 912 residues) preincubated for 15 mins followed by DNA addition measured after 30 mins relative to control
T1 sequence (Q9Y6K1 whole entry, looked up, the tested form may be a part): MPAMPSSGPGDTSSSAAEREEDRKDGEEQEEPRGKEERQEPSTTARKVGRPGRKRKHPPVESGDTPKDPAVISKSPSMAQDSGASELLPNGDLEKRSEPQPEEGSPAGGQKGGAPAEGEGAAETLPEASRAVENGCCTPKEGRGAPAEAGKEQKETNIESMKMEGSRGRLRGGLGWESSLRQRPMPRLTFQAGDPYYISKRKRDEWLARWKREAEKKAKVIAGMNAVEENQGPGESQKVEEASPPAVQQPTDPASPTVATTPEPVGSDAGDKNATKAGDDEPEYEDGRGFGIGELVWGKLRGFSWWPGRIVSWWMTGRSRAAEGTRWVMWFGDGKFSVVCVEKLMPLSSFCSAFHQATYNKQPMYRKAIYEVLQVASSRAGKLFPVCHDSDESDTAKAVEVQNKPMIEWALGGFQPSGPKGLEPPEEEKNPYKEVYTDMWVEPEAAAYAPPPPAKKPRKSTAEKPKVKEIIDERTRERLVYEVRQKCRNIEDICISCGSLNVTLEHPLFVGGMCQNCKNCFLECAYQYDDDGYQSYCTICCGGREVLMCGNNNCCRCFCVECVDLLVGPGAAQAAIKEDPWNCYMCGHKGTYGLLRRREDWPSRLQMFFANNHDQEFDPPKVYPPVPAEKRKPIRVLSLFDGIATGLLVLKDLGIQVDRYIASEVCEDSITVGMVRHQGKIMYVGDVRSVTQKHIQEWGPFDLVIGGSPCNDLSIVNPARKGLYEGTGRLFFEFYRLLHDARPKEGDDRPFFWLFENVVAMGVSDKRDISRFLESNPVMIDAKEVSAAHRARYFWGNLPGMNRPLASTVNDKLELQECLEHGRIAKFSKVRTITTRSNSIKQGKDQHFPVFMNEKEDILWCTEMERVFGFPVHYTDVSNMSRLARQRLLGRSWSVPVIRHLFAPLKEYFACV

[4] = target: T1, DNA (cytosine-5)-methyltransferase 3A; assay: Mixed type inhibition of human DNMT3A using AdoMet as substrate
[5] = target: T1, DNA (cytosine-5)-methyltransferase 3A; assay: Binding affinity to human DNMT3A catalytic domain assessed as inhibition of enzyme-mediated DNA methylation using 3H-AdoMet as substrate incubated for 30 mins
[6] = target: T1, DNA (cytosine-5)-methyltransferase 3A; assay: Mixed type inhibition of human DNMT3A using poly dl-dC as substrate
[7] = target: T1, DNA (cytosine-5)-methyltransferase 3A; assay: Binding affinity to human DNMT3A catalytic domain assessed as inhibition of enzyme-mediated DNA methylation using poly dl-dC as substrate incubated for 30 mins
[8] = target: T1, DNA (cytosine-5)-methyltransferase 3A; assay: Uncompetitive inhibition of human DNMT3A using poly dl-dC as substrate
[9] = target: T1, DNA (cytosine-5)-methyltransferase 3A; assay: Uncompetitive inhibition of human DNMT3A using AdoMet as substrate

DNA (cytosine-5)-methyltransferase 1 (Homo sapiens), sequence (P26358 whole entry): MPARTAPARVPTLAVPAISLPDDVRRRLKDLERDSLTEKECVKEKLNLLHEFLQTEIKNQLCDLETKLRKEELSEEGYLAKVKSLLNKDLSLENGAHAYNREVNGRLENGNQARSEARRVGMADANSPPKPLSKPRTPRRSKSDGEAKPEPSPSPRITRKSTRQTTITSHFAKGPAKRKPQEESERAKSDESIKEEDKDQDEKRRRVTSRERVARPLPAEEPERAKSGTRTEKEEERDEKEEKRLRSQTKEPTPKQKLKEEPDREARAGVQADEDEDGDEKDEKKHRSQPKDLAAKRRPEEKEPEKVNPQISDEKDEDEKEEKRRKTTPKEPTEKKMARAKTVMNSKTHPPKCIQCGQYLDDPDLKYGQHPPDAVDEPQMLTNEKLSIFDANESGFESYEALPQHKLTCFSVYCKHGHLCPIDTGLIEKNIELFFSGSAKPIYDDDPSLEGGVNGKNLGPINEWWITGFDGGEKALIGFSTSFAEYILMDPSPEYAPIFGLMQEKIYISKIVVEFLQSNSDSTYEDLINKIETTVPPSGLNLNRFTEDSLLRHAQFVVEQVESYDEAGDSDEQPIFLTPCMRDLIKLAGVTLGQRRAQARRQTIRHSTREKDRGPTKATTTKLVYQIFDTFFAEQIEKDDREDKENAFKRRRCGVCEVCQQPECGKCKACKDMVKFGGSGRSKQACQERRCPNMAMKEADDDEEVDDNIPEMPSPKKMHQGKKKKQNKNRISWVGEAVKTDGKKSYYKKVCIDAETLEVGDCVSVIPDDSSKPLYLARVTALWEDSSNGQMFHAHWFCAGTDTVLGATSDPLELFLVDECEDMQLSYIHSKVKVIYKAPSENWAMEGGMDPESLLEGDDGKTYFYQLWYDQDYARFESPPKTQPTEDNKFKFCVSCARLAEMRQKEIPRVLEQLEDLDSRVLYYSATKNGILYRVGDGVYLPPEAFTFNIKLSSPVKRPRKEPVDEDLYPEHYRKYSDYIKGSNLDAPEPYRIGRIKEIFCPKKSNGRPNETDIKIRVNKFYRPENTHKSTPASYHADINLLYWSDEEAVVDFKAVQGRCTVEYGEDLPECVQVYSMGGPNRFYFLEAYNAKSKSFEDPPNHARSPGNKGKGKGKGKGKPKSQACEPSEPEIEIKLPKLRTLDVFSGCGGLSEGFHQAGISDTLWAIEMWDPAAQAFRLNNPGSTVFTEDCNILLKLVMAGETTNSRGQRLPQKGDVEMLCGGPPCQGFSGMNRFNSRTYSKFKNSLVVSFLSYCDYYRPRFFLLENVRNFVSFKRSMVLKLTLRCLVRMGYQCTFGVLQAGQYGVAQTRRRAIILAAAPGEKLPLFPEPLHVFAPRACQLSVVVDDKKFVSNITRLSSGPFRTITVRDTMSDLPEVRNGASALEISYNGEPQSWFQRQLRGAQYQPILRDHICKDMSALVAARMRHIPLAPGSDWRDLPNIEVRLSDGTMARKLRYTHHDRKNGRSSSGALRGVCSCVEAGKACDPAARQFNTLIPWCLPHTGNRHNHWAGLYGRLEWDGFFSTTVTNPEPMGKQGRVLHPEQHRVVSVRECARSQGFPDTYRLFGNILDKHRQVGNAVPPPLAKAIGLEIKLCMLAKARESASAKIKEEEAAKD

| Compound | inhibition [1] | inhibition [2] | inhibition [3] | Ki [4] [µM] | Ki [5] [µM] | Ki [6] [µM] | Ki [7] [µM] | Ki [8] [µM] | Ki [9] [µM] |
| --- | --- | --- | --- | --- | --- | --- | --- | --- | --- |
| COc1ccc(C2=NN(C3CCCCCC3)C(=O)C2(C)C)cc1OCCCCOc1ccc(-c2nn[nH]n2)cc1 | Active | inactive | Active |  |  |  |  |  |  |
| COc1ccc(C2=NN(C3CCCCCC3)C(=O)C2(C)C)cc1OCCCCOc1ccc(-c2nnn[nH]2)cc1 |  |  |  | 3.7 | 5.03 | 12.6 | 21.6 |  |  |
| COc1ccc(C2=NN(C3CCCCCC3)C(=O)[C@@H]3CC=CC[C@H]23)cc1OCCCCOc1ccc(-c2nnn[nH]2)cc1 | Active | inactive | Active |  | 13.8 |  | 16.1 | 11.4 | 9.16 |
